Laboratory results: patent publication US20260345553A1, “COMPOSITION FOR TREATING CANCER COMPRISING HISTONE DEACETYLASE INHIBITOR, AND ANTICANCER ADJUVANT FOR CANCER IMMUNOTHERAPY” (SAMSUNG LIFE PUBLIC WELFARE FOUNDATION, priority 2022, published 2026)

How the values were obtained:
[1] = Body weight of mice, HDAC6 inhibitor animal experiment; format: in vivo, BALB/C mice; details: HDAC6i 20 mpk i.p. daily; FIG. 9D
Procedure: The animal experiment using an HDAC6 inhibitor was conducted using a total of three groups, a control group (control), an HDAC6i (Next A) group, and an HDAC6i (Next A)+anti-PD-L1 group. Nexturastat A (SellekChem) was used as HDAC6i (HDAC6 inhibitor), and #BE0101 (Bioxcell) was used as an anti-PD-L1 antibody. CT26 (1×10^6) cells and BALB/C mice were used. Three mice for the control group, three mice for the HDAC6i group, and four mice for the HDAC6i+anti-PD-L1 group were used.
• HDAC6i group: HDAC6i 20 mpk (mg/kg) intraperitoneally injected daily • HDAC6i+anti-PD-L1 group: HDAC6i 20 mpk intraperitoneally injected every day and anti-PD-L1 antibody 10 mpk intraperitoneally injected three times per week.

CT26 tumor = assay: CD8 T cell-dependent CT26 tumor growth suppression with anti-CD8a pre-treatment; format: in vivo, BALB/C mice; details: concluded from anti-CD8a blocking
Procedure: To examine the hypothesis that an HDAC6 inhibitor suppresses CT26 tumor growth in a CD8 T cell-dependent manner, an experiment on the combination with anti-CD8a antibody was further conducted by pre-treatment with anti-CD8a antibody, which binds to CD8 T cells. The experiment was conducted by intraperitoneally administering an anti-CD8a antibody to animals from 3 days before tumor cell injection at 3-day intervals to inhibit CD8 T cells and administering an HDAC6 inhibitor and an anti-PD-L1 antibody.
Specifically, the experiment was conducted on a total of four groups: a control group, an anti-CD8a group, an HDAC6i (Next A)+anti-PD-L1 group, and an HDAC6i (Next A)+anti-PD-L1+anti-CD8a group. CT26 cells (1×10^6) for a cell line, Nexturastat A (SellekChem) as HDAC6i (HDAC6 inhibitor), #BE0101 (Bioxcell) as an anti-PD-L1 antibody, and #BE017 (Bioxcell) as an anti-CD8a antibody were used. BALB/C mice were used. In addition, 6 mice for the control group, 6 mice for the anti-CD8a group, 6 mice for the HDAC6i (Next A)+anti-PD-L1 group, and 8 mice for the HDAC6i (Next A)+anti-PD-L1+anti-CD8a group were used. […]

B7H3 = B7H3 expression by HDAC6 inhibitor, MSI versus MSS colorectal cancer cell lines; format: cell-based; details: IC50 and half-IC50; MSI DLD-1, HCT116, MC38; MSS SW620, HT29, CT26; FIG. 15
Procedure: (§1) The IC50 values of the HDAC6 inhibitor (Nexturastat A) in three MSI colorectal cancer cell lines (DLD-1, HCT116, and MC38) and three MSS colorectal cancer cell lines (SW620, HT29, and CT26) were determined. The cells were then treated with the inhibitor at the IC50 and half-IC50 concentrations (concentration corresponding to ½ of the IC50 value), and the expression levels of the immune checkpoint proteins PD-L1 and B7H3 were measured.

PD-L1 [2] = assay: PD-L1 expression (RNA and protein) after HDAC inhibitor treatment in colorectal cell lines; format: cell-based, human, mouse; details: for PD-L1 expression in MSS compared with MSI colorectal cell lines: MSS compared with MSI colorectal cell lines (summary statement); for PD-L1 expression upon HDAC inhibitor treatment, MSS cell lines: SW620, LS513, and CT26, IC50 and ½ IC50, 48 hours, HDAC3 inhibitor compared with HDAC6 and HDAC8 (FIG. 2), HDAC8 inhibitor concentration-dependent (FIG. 6)
Procedure: (§2) The HDAC3 inhibitor experiment was conducted by harvesting cells 48 hours after the treatment at each inhibitor concentration and obtaining RNA and proteins. RGFP966 (S7229) purchased from SellekChem was used as an HDAC3 inhibitor. Specifically, SW620, LS513, DLD-1, CT26, and MC38 were individually cultured, and the experiments were conducted using the IC50 and ½ IC50 concentration on the basis of the previously determined IC50 concentration. RNA and protein samples were collected 48 hours after RGFP966 treatment. The RNA samples were isolated using the TRIzol, isopropanol, and chloroform, and the protein samples were collected by lysis with a lysis buffer (Roche, 4719956001). RNA was synthesized into cDNA using a cDNA synthesis kit (Bioneer, K-2044-B), and real-time PCR was performed using a method according to SYBR (Applied Biosystems, 4367659). Proteins were quantified using the Bradford assay (Bio-Rad, 50000006), and subjected to loading, transfer, blocking (3% skim milk; BD, 232100), primary antibody (24 h, 4 °C), and secondary antibody sequentially, thereby developing PD-L1.
The HDAC6 inhibitor experiment was conducted by the same method as in the HDAC3 inhibitor experiment of Experimental Example 3, and Nexturastat A HDAC6 selective inhibitor purchased from SellekChem was used as an HDAC6 inhibitor.
The HDAC8 inhibitor experiment was conducted by the same method as in the HDAC3 inhibitor experiment of Experimental Example 3, and PCI-34051 HDAC8 selective inhibitor purchased from SellekChem was used as an HDAC8 inhibitor.
The HDAC6 and HDAC8 inhibitor experiment was conducted by harvesting cells 48 hours after the treatment and then obtaining RNA and proteins.

PD-L1 [3] = assay: PD-L1 expression by HDAC6 inhibitor, MSI versus MSS colorectal cancer cell lines; format: cell-based; details: IC50 and half-IC50; MSI DLD-1, HCT116, MC38; MSS SW620, HT29, CT26; FIG. 15
Procedure: as §1

PD-L1 [4] = assay: PD-L1 expression after HDAC3 inhibitor treatment in mouse cells; format: cell-based; details: IC50 and ½ IC50, 48 hours, FIG. 2
Procedure: as §2

Row | SMILES | body weight of the animals [1] | CD8 T cell dependence of CT26 tumor growth suppression (CT26 tumor) | B7H3 expression in MSS compared with MSI cell line (B7H3) | PD-L1 expression at the RNA and protein levels upon HDAC6 inhibitor treatment (PD-L1 [2]; MSS cell lines SW620, LS513, HT29, and CT26, depending on the concentration, 48 hours, FIG. 4) | PD-L1 expression in MSS compared with MSI colorectal cell lines (PD-L1 [2]) | PD-L1 expression in MSS compared with MSI cell line (PD-L1 [3]) | PD-L1 expression upon HDAC inhibitor treatment, MSS cell lines (PD-L1 [2]) | PD-L1 expression upon HDAC3 inhibitor treatment, mouse cells (PD-L1 [4])
1 | CCCCN(Cc1ccc(C(=O)NO)cc1)C(=O)Nc1ccccc1 [Nexturastat A] | not reduced | suppressed CT26 tumor growth in a CD8 T cell-dependent manner | distinct increase tendencies | increase in PD-L1 expression at the RNA and protein levels | further up-regulated | distinct increase tendencies |  | 
2 | COc1ccc(Cn2ccc3ccc(C(=O)NO)cc32)cc1 [PCI-34051] |  |  |  |  | further up-regulated |  | increase in PD-L1 expression at the RNA and protein levels | 
3 | Nc1cc(F)ccc1NC(=O)/C=C/c1cnn(C/C=C/c2ccccc2)c1 [RGFP966] |  |  |  |  |  |  | small increases | decrease tendency
